Data published in patent US8791132B2, “Compounds and methods for treatment of hypertension” (Medivation Technologies, Inc., priority 2011, dated 2014).

Key:
[1] = target: T1, human recombinant adrenergic α2A receptor (Homo sapiens, UniProt P08913); experiment: Radioligand binding, adrenergic α2A ([3H]MK-912); details: [3H]MK-912, repeat datapoints each shown; for Percentage inhibition of ligand binding, Adrenergic α2A (0.1 μM): compound at 0.1 μM; for inhibition at 0.1 µM: read-out: Percentage inhibition of ligand binding, Adrenergic α2A (0.1 μM), compound at 0.1 μM
T1 construct: expressed in transfected cells; host or cells: insect Sf9 cells
T1 sequence (P08913 1-465): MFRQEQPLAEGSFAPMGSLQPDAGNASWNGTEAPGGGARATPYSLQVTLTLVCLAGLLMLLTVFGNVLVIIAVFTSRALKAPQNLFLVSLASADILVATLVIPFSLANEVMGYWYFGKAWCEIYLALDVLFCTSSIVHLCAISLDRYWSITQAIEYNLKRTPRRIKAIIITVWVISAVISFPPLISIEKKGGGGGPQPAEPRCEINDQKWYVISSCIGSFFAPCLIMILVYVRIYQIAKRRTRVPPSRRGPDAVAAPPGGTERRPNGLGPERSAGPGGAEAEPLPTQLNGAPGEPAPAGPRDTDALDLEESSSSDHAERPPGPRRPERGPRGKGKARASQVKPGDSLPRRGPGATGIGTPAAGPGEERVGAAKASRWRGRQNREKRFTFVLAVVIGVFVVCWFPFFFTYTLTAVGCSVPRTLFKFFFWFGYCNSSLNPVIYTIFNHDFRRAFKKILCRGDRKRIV
Procedure, shortened: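 Receptor expressed in Sf9 cells, in 50 mM Tris-HCl pH 7.4, 12.5 mM MgCl2, 2 mM EDTA; compounds incubated with 1 nM [3H]MK-912 for 60 min at 25 °C.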

[2] = target: T2, human recombinant adrenergic α2B receptor (Homo sapiens, UniProt P18089); experiment: Radioligand binding, adrenergic α2B ([3H]Rauwolscine); details: [3H]Rauwolscine, repeat datapoints each shown; for Percentage inhibition of ligand binding, Adrenergic α2B (0.03 μM): compound at 0.03 μM; for inhibition at 0.03 µM: read-out: Percentage inhibition of ligand binding, Adrenergic α2B (0.03 μM), compound at 0.03 μM
T2 construct: expressed in transfected cells; host or cells: CHO-K1
T2 sequence (P18089 1-450): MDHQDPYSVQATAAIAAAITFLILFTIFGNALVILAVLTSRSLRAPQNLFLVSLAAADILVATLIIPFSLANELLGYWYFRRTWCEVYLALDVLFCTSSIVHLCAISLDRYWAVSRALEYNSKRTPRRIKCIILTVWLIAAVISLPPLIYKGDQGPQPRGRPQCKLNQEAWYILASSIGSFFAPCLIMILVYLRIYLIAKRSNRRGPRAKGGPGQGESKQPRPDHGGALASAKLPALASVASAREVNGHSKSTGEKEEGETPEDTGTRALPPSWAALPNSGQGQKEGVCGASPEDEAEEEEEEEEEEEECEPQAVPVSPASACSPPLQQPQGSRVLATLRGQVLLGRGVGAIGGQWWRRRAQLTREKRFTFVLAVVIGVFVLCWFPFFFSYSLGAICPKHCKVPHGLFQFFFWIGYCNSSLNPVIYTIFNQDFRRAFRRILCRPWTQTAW
Procedure, shortened: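 Values are percent inhibition of specific radioligand binding. The receptor, expressed in CHO-K1 cells, was exposed to 2.5 nM [3H]Rauwolscine at 25° C for 60 min, with 10 μM Prazosin marking non-specific binding.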

[3] = target: T3, rat adrenergic α1B receptor (Rattus norvegicus, UniProt P15823); experiment: Radioligand binding, adrenergic α1B ([3H]Prazosin); details: [3H]Prazosin, repeat datapoints each shown; for Percentage inhibition of ligand binding, Adrenergic α1B (0.1 μM): compound at 0.1 μM; for inhibition at 0.1 µM: read-out: Percentage inhibition of ligand binding, Adrenergic α1B (0.1 μM), compound at 0.1 μM
T3 construct: rat adrenergic α1B receptor obtained from Wistar Rat liver; from tissue; host or cells: Wistar rat liver
T3 sequence (P15823 1-515): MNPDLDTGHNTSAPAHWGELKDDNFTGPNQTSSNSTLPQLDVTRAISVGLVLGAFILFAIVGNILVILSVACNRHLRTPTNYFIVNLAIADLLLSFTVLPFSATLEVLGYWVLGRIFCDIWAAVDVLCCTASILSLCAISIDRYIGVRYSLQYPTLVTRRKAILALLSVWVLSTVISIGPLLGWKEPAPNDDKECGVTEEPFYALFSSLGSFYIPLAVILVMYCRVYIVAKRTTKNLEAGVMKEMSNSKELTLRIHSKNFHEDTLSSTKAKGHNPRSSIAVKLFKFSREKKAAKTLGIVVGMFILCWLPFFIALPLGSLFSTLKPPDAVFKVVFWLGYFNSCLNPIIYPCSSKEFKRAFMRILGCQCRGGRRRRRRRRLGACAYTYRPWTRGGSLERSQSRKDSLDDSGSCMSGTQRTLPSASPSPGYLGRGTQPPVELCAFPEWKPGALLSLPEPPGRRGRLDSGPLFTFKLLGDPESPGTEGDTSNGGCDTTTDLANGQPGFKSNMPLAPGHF
Procedure, shortened: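 Rat α1B receptor from Wistar rat liver was incubated with 0.25 nM [3H]prazosin for 60 min at 25 °C in 50 mM Tris-HCl, pH 7.4, 0.5 mM EDTA. Non-specific binding was defined with 10 μM phentolamine. Bound radioligand was measured by filtration and counting, reported as percent inhibition of specific binding.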

Compound	Percentage inhibition of ligand binding, Adrenergic α2A (0.1 μM) [1]	Percentage inhibition of ligand binding, Adrenergic α2B (0.03 μM) [2]	Percentage inhibition of ligand binding, Adrenergic α1B (0.1 μM) [3]	inhibition at 0.1 µM [1]	inhibition at 0.03 µM [2]	inhibition at 0.1 µM [3]
Cc1ccc2c(c1)c1c(n2CC(C)(O)c2cccnc2)C(c2ccccc2)N(C)CC1 (stereo not drawn) [II-112b, 1-(2,6-dimethyl-1-phenyl-1,2,3,4-tetrahydro-β-carbolin-9-yl)-2-pyridin-3-yl-propan-2-ol]	3%	31%	10%	–	–	–
Cc1cnc2c(c1)c1c(n2CC(O)c2ccc(C#N)cc2)CCNC1 (stereo not drawn) [II-116]	–	–	–	3%	43%	4%
Cc1ccc2c(n1)c1c(n2CC(O)c2ccncc2)CCN2CCCC12 (stereo not drawn) [II-122]	–	–	–	-10%	47%	-2%
CN1CCc2c(c3ncccc3n2CC(C)(O)c2cccnc2)C1 (stereo not drawn) [II-126]	–	–	–	4%	4%	-4%
Cc1ccc2c(c1)c1c(n2CC(C)(O)c2ccc(C)nc2)CCN2CCCC12 (stereo not drawn) [II-128a, 1-(9-methyl-1,2,3,4,5,10c-hexahydro-3a,6-diaza-cyclopenta[c]fluoren-6-yl)-2-(6-methyl-pyridin-3-yl)-propan-2-ol]	–	–	–	34%	97%	61%
CN1CCc2c(c3ccncc3n2CC(C)(O)c2cccnc2)C1 (stereo not drawn) [II-129]	–	–	–	12%	1%	2%
CC(O)(Cn1c2c(c3cc(Cl)ccc31)C1CCCN1CC2)c1cccnc1 (stereo not drawn) [II-130, 1-(10-chloro-2,3,5,6-tetrahydro-1H-indolizino[7,8-b]indol-7(11cH)-yl)-2-(pyridin-3-yl)propan-2-ol]	41%	97%	43%	–	–	–
Cc1ccc2c(c1)c1c(n2CC(O)c2cccnc2)CCN2CCCC12 (stereo not drawn) [II-131, 2-(9-Methyl-1,2,3,4,5,10c-hexahydro-3a,6-diaza-cyclopenta[c]fluoren-6-yl)-1-pyridin-3-yl-ethanol]	–	–	–	85%	103%	90%
Cc1ccc2c(c1)c1c(n2CC(C)(O)c2cccnc2)CCN(C)CC1 (stereo not drawn) [II-135a, 1-(3,9-dimethyl-2,3,4,5-tetrahydroazepino[4,5-b]indol-6(1H)-yl)-2-(pyridin-3-yl)propan-2-ol]	–	–	–	-3%	34%	48%
Cc1ccc2c(c1)c1c(n2CC(O)c2cnn[nH]2)CCN2CCCC12 (stereo not drawn) [II-138]	–	–	–	9%	77%	57%
Cc1ccc2c(c1)c1c(n2CC(O)c2ncc[nH]2)CCN2CCCC12 (stereo not drawn) [II-139, 1-(1H-imidazol-2-yl)-2-(10-methyl-2,3,5,6-tetrahydro-1H-indolizino[7,8-b]indol-7(11cH)-yl)ethanol]	–	–	–	7%	72%	34%
Cc1ccc2c(c1)c1c(n2CC(O)c2cnc[nH]2)CCN2CCCC12 (stereo not drawn) [II-140, 1-(1H-imidazol-5-yl)-2-(10-methyl-2,3,5,6-tetrahydro-1H-indolizino[7,8-b]indol-7(11cH)-yl)ethanol]	–	–	–	3%	72%	53%
Cc1ccc2c(c1)c1c(n2CC(C)(O)c2cncc(C(=O)O)c2)CCN(C)C1 (stereo not drawn) [II-141, 5-(1-(1,2,3,4-tetrahydro-2,8-dimethylpyrido[4,3-b]indol-5-yl)-2-hydroxypropan-2-yl)pyridine-3-carboxylic acid]	–	–	–	-2%	22%	7%
Cc1ccc2c(c1)c1c(n2CC(C)(O)c2cnco2)CCN(C)C1 (stereo not drawn) [II-142, 1-(1,2,3,4-tetrahydro-2,8-dimethylpyrido[4,3-b]indol-5-yl)-2-(oxazol-5-yl)propan-2-ol]	–	–	–	-4%	23%	5%
Cc1ccc2c(c1)c1c(n2CC(C)(O)c2ccc[nH]c2=O)CCN(C)C1 (stereo not drawn) [II-143, 3-(1-(1,2,3,4-tetrahydro-2,8-dimethylpyrido[4,3-b]indol-5-yl)-2-hydroxypropan-2-yl)pyridin-2(1H)-one]	–	–	–	-3%	22%	13%
Cc1ccc2c(c1)c1c(n2CC(C)(O)c2cnccc2Cl)CCN(C)C1 (stereo not drawn) [II-148]	–	–	–	27%	93%	21%
Cc1ccc2c(c1CO)c1c(n2CC(O)c2ccncc2)CCN(C)C1 (stereo not drawn) [II-150, 2-(9-(hydroxymethyl)-2,8-dimethyl-3,4-dihydro-1H-pyrido[4,3-b]indol-5(2H)-yl)-1-(pyridin-4-yl)ethanol]	–	–	–	5%	30%	14%
Cc1ccc2c(c1CO)c1c(n2CC(C)(O)c2cccnc2)CCN(C)C1 (stereo not drawn) [II-153]	–	–	–	2%	7%	2%
Cc1cc2c3c(n(CC(C)(O)c4cccnc4)c2cc1CO)CCN(C)C3 (stereo not drawn) [II-154]	–	–	–	11%	73%	2%
Cc1ccc2c(c1)c1c(n2C(C)(C)C(O)c2ccccc2)CCN(C)C1 (stereo not drawn) [II-187]	–	–	–	10%	27%	54%
Cc1ccc2c(c1)c1c(n2CC(C)(F)c2cccnc2)CCN(C)C1 (stereo not drawn) [II-212, 5-(2-Fluoro-2-pyridin-3-yl-propyl)-2,8-dimethyl-2,3,4,5-tetrahydro-1H-pyrido[4,3-b]indole]	–	–	–	19%	73%	29%
CN1CCc2c(c3cc(CO)ccc3n2CC(C)(F)c2cccnc2)C1 (stereo not drawn) [II-213, [5-(2-fluoro-2-pyridin-3-yl-propyl)-2-methyl-2,3,4,5-tetrahydro-1H-pyrido[4,3-b]indol-8-yl]-methanol]	–	–	–	12%	11%	-3%
Cc1ccc2c(c1)c1c(n2CC(CN)c2ccncc2)CCN(C)C1 (stereo not drawn) [II-221]	–	–	–	10%	0%	-1%
Cc1ccc2c(c1)c1c(n2CC(CC(=O)C(C)(C)C)c2ccncc2)CCN(C)C1 (stereo not drawn) [II-222, 6-(2,8-dimethyl-1,2,3,4-tetrahydro-pyrido[4,3-b]indol-5-yl)-2,2-dimethyl-5-pyridin-4-yl-hexan-3-one]	–	–	–	26%	99%	19%
COC(=O)CC(Cn1c2c(c3cc(C)ccc31)CN(C)CC2)c1ccncc1 (stereo not drawn) [II-223, 4-(2,8-dimethyl-1,2,3,4-tetrahydro-pyrido[4,3-b]indol-5-yl)-3-pyridin-4-yl-butyric acid methyl ester]	–	–	–	8%	88%	9%
